Literature values in Sander's compilation of Henry's law constants (doi:10.1016/j.chemosphere.2021.129858).

Assay: Henry solubility constant Hcp at 298.15 K (mol/(m3 Pa))
Details: reference: Schwardt et al. (2021); cited value

Compound | Henry solubility constant Hcp
Clc1ccc(Cl)cc1 [1,4-dichlorobenzene] | 0.0032
ClCC(Cl)(Cl)Cl [1,1,1,2-tetrachloroethane] | 0.005
Cc1ccc(Cl)cc1Cl [2,4-dichloro-1-methylbenzene] | 0.0027
c1ccc2c(c1)-c1cccc3cccc-2c13 [benzo[jk]fluorene] | 0.58
c1cc2c3c(cccc3c1)CC2 [acenaphthene] | 0.054
Cc1ccccc1C [1,2-dimethylbenzene] | 0.002
CCc1ccccc1 [ethylbenzene] | 0.0014
CC(Cl)(Cl)Cl [1,1,1-trichloroethane] | 0.0006
ClC(Cl)C(Cl)Cl [1,1,2,2-tetrachloroethane] | 0.023
Clc1cccc(Cl)c1 [1,3-dichlorobenzene] | 0.0031
CCCc1ccccc1 [propylbenzene] | 0.0009
C=CCl [chloroethene] | 0.00041
ClCC(Cl)Cl [1,1,2-trichloroethane] | 0.011
CCCl [chloroethane] | 0.00081
Cc1ccc(C)cc1 [1,4-dimethylbenzene] | 0.0015
Cc1cccc(C)c1 [1,3-dimethylbenzene] | 0.0014
C=C(Cl)Cl [1,1-dichloroethene] | 0.00037
ClCCl [dichloromethane] | 0.0039
c1ccc2cc3ccccc3cc2c1 [anthracene] | 0.18
ClC(Cl)(Cl)Cl [tetrachloromethane] | 0.00034
c1ccccc1 [benzene] | 0.0018
c1ccc2c(c1)ccc1ccccc12 [phenanthrene] | 0.21
Clc1ccccc1 [chlorobenzene] | 0.0024
ClC=C(Cl)Cl [trichloroethene] | 0.0011
Cc1ccccc1 [methylbenzene] | 0.0016
c1ccc2ccccc2c1 [naphthalene] | 0.021
CC(Cl)CCl (stereo not drawn) [1,2-dichloropropane] | 0.0037
ClC(Cl)=C(Cl)Cl [tetrachloroethene] | 0.00057
